Common to all, as to assay: microbe, parasite or virus in culture
Assay type in all cases: cell-based, Hepatitis C virus (HCV)
What all share (settings): Replicon Assay A

The test system of one assay is HCV replicon 2B. The essentials:
(§1)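 Replicon cells were seeded at 2000 cells/well with test compound in 0.5% DMSO and 5% FBS, then harvested on day 3. Replicon RNA was measured by multiplex TaqMan real-time RT-PCR, using cyclophilin RNA as the endogenous control and quantified against standard curves of HCV replicon total RNA.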

The next assay relates to HCV replicon 1A. The method in brief:
as §1

The next assay deals with HCV replicon 1AY93H. The essentials: as §1
[1] abbreviates: read-out: 2B IC50, HCV replicon 2B.
The mark [2] stands for this setting: read-out: 1A Y93H IC50, HCV replicon 1A Y93H.
[3] abbreviates: Hepatitis C virus, HCV replicon 1A.

Like-named read-outs stand apart in the source and are kept apart here.

Consider `COC(=O)N[C@H](C(=O)N1C[C@H](F)C[C@H]1c1ncc(-c2ccc3c(c2)OC(c2ccc(C)s2)n2c-3cc3cc(-c4cnc([C@@H]5C[C@H]6C[C@H]6N5C(=O)[C@@H](NC(=O)OC)C(C)C)[nH]4)ccc32)[nH]1)C(C)C` (single isomer, unassigned) [Compound 707], for which the IC50 – broadly, the point on the concentration scale where inhibition reaches its midpoint – was determined as 0.84 nM in the assay on HCV replicon 2B (setting [1]), 6.4 pM in the assay on HCV replicon 1A (HCV replicon 1A) and 0.034 nM in the assay with HCV replicon 1AY93H (setting [2]).

For `COC(=O)N[C@H](C(=O)N1C[C@H](F)C[C@H]1c1ncc(-c2ccc3c(c2)OC(c2ccc(C)s2)n2c-3cc3cc(-c4cnc([C@@H]5C[C@H]6C[C@H]6N5C(=O)[C@@H](NC(=O)OC)C(C)C)[nH]4)ccc32)[nH]1)C(C)C` (single isomer, unassigned) [Compound 708], the results for the IC50 with HCV replicon 2B (setting [1]), in the assay on HCV replicon 1A (HCV replicon 1A) and in the assay on HCV replicon 1AY93H (setting [2]) were 3.05 nM, 18 pM and 0.042 nM, respectively.

Regarding `COC(=O)N[C@H](C(=O)N1CCC[C@H]1c1ncc(-c2ccc3c(c2)OC(c2cc4sccc4s2)n2c-3cc3cc(-c4c[nH]c([C@@H]5C[C@H]6C[C@H]6N5C(=O)[C@@H](NC(=O)OC)C(C)C)n4)ccc32)[nH]1)C(C)C` (single isomer, unassigned) [Compound 717], the figures for the IC50 with HCV replicon 2B (setting [1]), in the assay on HCV replicon 1A (HCV replicon 1A) and in the assay with HCV replicon 1AY93H (setting [2]) were 1.16 nM, 24 pM and 0.2 nM, respectively.

For `COC(=O)N[C@H](C(=O)N1CCC[C@H]1c1ncc(-c2ccc3c(c2)OC(c2cc4sccc4s2)n2c-3cc3cc(-c4c[nH]c([C@@H]5C[C@H]6C[C@H]6N5C(=O)[C@@H](NC(=O)OC)C(C)C)n4)ccc32)[nH]1)C(C)C` (single isomer, unassigned) [Compound 718], the figures for the IC50 in the assay on HCV replicon 2B (setting [1]), in the assay on HCV replicon 1A (HCV replicon 1A) and in the assay with HCV replicon 1AY93H (setting [2]) were 0.82 nM, 2.4 pM and 0.11 nM, respectively.

For the compound `COC(=O)N[C@H](C(=O)N1CCC[C@H]1c1nc(-c2cc(F)c3c(c2)OC(c2ccc(C4CC4)s2)n2c-3cc3cc(-c4c[nH]c([C@@H]5C[C@H]6C[C@H]6N5C(=O)[C@@H](NC(=O)OC)C(C)C)n4)ccc32)c[nH]1)C(C)C` (single isomer, unassigned) [Compound 719], the IC50 in the assay with HCV replicon 2B (setting [1]) is 0.036 nM; in the assay with HCV replicon 1A (HCV replicon 1A), 10 pM; in the assay on HCV replicon 1AY93H (setting [2]), 0.032 nM.

For `COC(=O)N[C@H](C(=O)N1CCC[C@H]1c1nc(-c2cc(F)c3c(c2)OC(c2ccc(C4CC4)s2)n2c-3cc3cc(-c4c[nH]c([C@@H]5C[C@H]6C[C@H]6N5C(=O)[C@@H](NC(=O)OC)C(C)C)n4)ccc32)c[nH]1)C(C)C` (single isomer, unassigned) [Compound 720], the IC50 worked out at 3.99 nM in the assay with HCV replicon 2B (setting [1]), 1.9 pM with HCV replicon 1A (HCV replicon 1A) and 0.52 nM in the assay with HCV replicon 1AY93H (setting [2]).

`COC(=O)N[C@H](C(=O)N1C[C@H](F)C[C@H]1c1nc(-c2ccc3c(c2)OC(c2ccc(C)s2)n2c-3cc3cc(-c4c[nH]c([C@@H]5C[C@H]6C[C@H]6N5C(=O)[C@@H](NC(=O)OC)C5CCOCC5)n4)ccc32)c[nH]1)C1CCOCC1` (single isomer, unassigned) [Compound 729]: the IC50 in the assay with HCV replicon 2B (setting [1]) was 0.034 nM; in the assay on HCV replicon 1A (HCV replicon 1A) it was 28 pM; in the assay with HCV replicon 1AY93H (setting [2]) it was 0.22 nM.

`COC(=O)N[C@H](C(=O)N1C[C@H](F)C[C@H]1c1nc(-c2ccc3c(c2)OC(c2ccc(C)s2)n2c-3cc3cc(-c4c[nH]c([C@@H]5C[C@H]6C[C@H]6N5C(=O)[C@@H](NC(=O)OC)C5CCOCC5)n4)ccc32)c[nH]1)C1CCOCC1` (single isomer, unassigned) [Compound 730]: the IC50 was 0.13 nM with HCV replicon 2B (setting [1]), 67 pM with HCV replicon 1A (HCV replicon 1A) and 0.06 nM in the assay on HCV replicon 1AY93H (setting [2]).

`COC(=O)N[C@H](C(=O)N1C[C@H](F)C[C@H]1c1nc(-c2ccc3c(c2)OC(c2ccc(C)s2)n2c-3cc3cc(-c4c[nH]c([C@@H]5C[C@H]6C[C@H]6N5C(=O)[C@@H](NC(=O)OC)C5CCOCC5)n4)ccc32)c[nH]1)C1CCOCC1` (single isomer, unassigned) [Compound 731]: the IC50 amounted to 0.021 nM with HCV replicon 2B (setting [1]), 24 pM in the assay with HCV replicon 1A (HCV replicon 1A) and 0.026 nM in the assay on HCV replicon 1AY93H (setting [2]).

Regarding `COC(=O)N[C@H](C(=O)N1CCC[C@H]1c1ncc(-c2cc(C)c3c(c2)OC(c2ccc(C4CC4)s2)n2c-3cc3cc(-c4cnc([C@@H]5CCCN5C(=O)[C@@H](NC(=O)OC)C(C)C)[nH]4)ccc32)[nH]1)C(C)C` (single isomer, unassigned) [Compound 752], the IC50 in the assay with HCV replicon 2B (setting [1]) was determined as 0.6 nM; in the assay on HCV replicon 1A (HCV replicon 1A), 2.8 pM; with HCV replicon 1AY93H (setting [2]), 2.7 nM.

Consider `COC(=O)N[C@H](C(=O)N1CCC[C@H]1c1cnc(-c2ccc3c(c2)cc2n3C(c3cc4ccccc4s3)Oc3cc(-c4cnc([C@@H]5CCCN5C(=O)[C@@H](NC(=O)OC)C5CCOCC5)[nH]4)ccc3-2)[nH]1)C1CCOCC1` (single isomer, unassigned) [Compound 809], for which the IC50 came to 4.2 nM in the assay on HCV replicon 2B (setting [1]), 16 pM in the assay on HCV replicon 1A (HCV replicon 1A) and 0.82 nM with HCV replicon 1AY93H (setting [2]).

Take `COC(=O)N[C@H](C(=O)N1CCC[C@H]1c1cnc(-c2ccc3c(c2)cc2n3C(c3cc4ccccc4s3)Oc3cc(-c4cnc([C@@H]5CCCN5C(=O)[C@@H](NC(=O)OC)C5CCOCC5)[nH]4)ccc3-2)[nH]1)C1CCOCC1` (single isomer, unassigned) [Compound 810]: the values for the IC50 in the assay with HCV replicon 2B (setting [1]), with HCV replicon 1A (HCV replicon 1A) and in the assay with HCV replicon 1AY93H (setting [2]) were 0.005 nM, 4 pM and 0.018 nM, respectively.

For `COC(=O)N[C@H](C(=O)N1CCC[C@H]1c1cnc(-c2ccc3c(c2)cc2n3C(c3cc4ccccc4s3)Oc3cc(-c4cnc([C@@H]5CCCN5C(=O)[C@@H](NC(=O)OC)C5CCOCC5)[nH]4)ccc3-2)[nH]1)C1CCOCC1` (single isomer, unassigned) [Compound 811], the IC50 in the assay on HCV replicon 2B (setting [1]) stood at 0.664 nM; in the assay with HCV replicon 1A (HCV replicon 1A), 42 pM; in the assay on HCV replicon 1AY93H (setting [2]) it was 0.058 nM.

With `COC(=O)N[C@H](C(=O)N1CCC[C@H]1c1ncc(-c2ccc3c(c2)OC(c2cc4ccccc4s2)n2c-3cc3cc(-c4cnc([C@@H]5C[C@@H](F)CN5C(=O)[C@@H](NC(=O)OC)C5CCOCC5)[nH]4)ccc32)[nH]1)C1CCOCC1` (single isomer, unassigned) [Compound 812], the IC50 is 0.15 nM with HCV replicon 2B (setting [1]), 34 pM with HCV replicon 1A (setting [3]) and 0.44 nM in the assay on HCV replicon 1AY93H (setting [2]).

For `COC(=O)NC(C(=O)N1CCCC1c1ncc(-c2cc(F)c3c(c2)OC(c2ccc(CC(C)(C)OC)s2)n2c-3cc3cc(-c4cnc(C5CCCN5C(=O)C(NC(=O)OC)C5CCOC(C)(C)C5)[nH]4)ccc32)[nH]1)C(C)C` (single isomer, unassigned) [Compound 850], the concentration for half-maximal inhibition (IC50) with HCV replicon 2B (HCV replicon 2B, read-out: 2B IC50) turned out to be 0.375 nM; with HCV replicon 1A (HCV replicon 1A) it was 2.8 pM; with HCV replicon 1AY93H (HCV replicon 1A Y93H, read-out: 1A Y93H IC50), 0.855 nM.

Regarding `COC(=O)NC(C(=O)N1CCC[C@H]1c1ncc(-c2ccc3c(c2)cc2n3C(c3ccc(CC(F)(F)F)s3)Oc3cc(-c4cnc([C@@H]5CCCN5C(=O)[C@@H](NC(=O)OC)C(C)C)[nH]4)cc(F)c3-2)[nH]1)C1C[C@@H](C)O[C@@H](C)C1` (stereo partly drawn) [Compound 381], the IC50 amounted to 0.181 nM in the assay on HCV replicon 2B (Hepatitis C virus, read-out: 2B IC50 (nM), replicon 2B); 1.4 pM in the assay with HCV replicon 1A (Hepatitis C virus, replicon 1A); 0.141 nM in the assay on HCV replicon 1AY93H (Hepatitis C virus, read-out: 1A Y93H IC50 (nM), replicon 1AY93H).

In the case of `COC(=O)N[C@H](C(=O)N1CCC[C@H]1c1ncc(-c2ccc3c(c2)O[C@@H](c2cc4cc(OC)ccc4s2)n2c-3cc3cc(-c4cnc([C@@H]5CCCN5C(=O)[C@@H](NC(=O)OC)C(C)C)[nH]4)ccc32)[nH]1)C(C)C` [Compound 758], the IC50 is 0.43 nM in the assay on HCV replicon 2B (Hepatitis C virus, read-out: 2B IC50, HCV replicon 2B); 5 pM in the assay on HCV replicon 1A (setting [3]); 0.17 nM in the assay with HCV replicon 1AY93H (Hepatitis C virus, read-out: 1A Y93H IC50, HCV replicon 1A Y93H).

(Values after patent publication US20160257697A1, “THIOPHENE-SUBSTITUTED TETRACYCLIC COMPOUNDS AND METHODS OFUSE THEREOF FOR THE TREATMENT OF VIRAL DISEASES” (priority 2013, published 2016).)
